US7452908B2, “Amide derivatives” (Banyu Pharmaceutical Co., Ltd., priority 1999, dated 2008)

Legend:
[1] = target: T1, human m2 muscarinic acetylcholine receptor expressed in CHO cells (Homo sapiens, UniProt P08172); assay: Inhibition of [3H]-N-methylscopolamine binding to muscarinic m2 receptor; details: 0.2 nM [3H]-N-methylscopolamine
T1 construct: purchased Receptor Biology, Inc; host or cells: CHO cells
T1 sequence (P08172 1-466): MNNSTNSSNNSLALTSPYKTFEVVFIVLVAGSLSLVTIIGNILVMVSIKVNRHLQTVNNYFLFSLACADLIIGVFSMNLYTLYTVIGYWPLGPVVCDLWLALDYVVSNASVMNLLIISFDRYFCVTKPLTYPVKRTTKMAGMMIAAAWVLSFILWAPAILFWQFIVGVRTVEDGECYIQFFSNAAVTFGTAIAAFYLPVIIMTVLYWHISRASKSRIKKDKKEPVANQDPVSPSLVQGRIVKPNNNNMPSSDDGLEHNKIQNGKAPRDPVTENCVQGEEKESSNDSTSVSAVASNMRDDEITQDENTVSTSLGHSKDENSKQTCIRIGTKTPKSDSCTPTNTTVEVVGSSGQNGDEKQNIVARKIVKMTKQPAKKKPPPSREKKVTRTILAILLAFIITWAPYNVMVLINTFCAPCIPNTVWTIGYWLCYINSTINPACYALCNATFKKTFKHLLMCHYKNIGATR
Method: (§1) These tests were performed according to a modification of the method of Hargreaves, et al. (Br. J. Pharmacol. 107: 494-501, 1992). Namely, muscarinic acetylcholine receptors of human m1, m2, m3, m4 and m5 expressed in CHO cells (Receptor Biology, Inc.) were incubated with 0.2 nM [^3H]-N-methylscopolamine (82Ci/mmol, New England Nuclear, Inc.) and a test compound to be tested in 0.5 ml of 50 mM Tris-HCl, 10 mM MgCl2, 1 mM EDTA solution (pH 7.4) for 120 minutes at room temperature (about 20-25° C.), followed by suction filtration over a glass filter (UniFilter plate-GF/C; Packard). Then the filter was washed four times with 1 ml of ice-cold Tris-HCl buffer and dried at 50° C. for an hour. After adding a scintillator (Microscinti 0; Packard), the radioactivity of [^3H]-N-methylscopolamine binding to the filter was counted with a microplate scintillation counter (TopCount™; Packard). Non-specific receptor binding of [^3H]-N-methylscopolamine was measured by adding 1 μM N-methylscopolamine.

[2] = target: T2, human m3 muscarinic acetylcholine receptor expressed in CHO cells (Homo sapiens, UniProt P20309); assay: Inhibition of [3H]-N-methylscopolamine binding to muscarinic m3 receptor; details: for Ki: human m3 in CHO cells, 0.2 nM [3H]-N-methylscopolamine; for Selectivity m1/m3: ratio of Ki m1 to Ki m3; for Selectivity m2/m3: ratio of Ki m2 to Ki m3; for Selectivity m4/m3: ratio of Ki m4 to Ki m3; for Selectivity m5/m3: ratio of Ki m5 to Ki m3
T2 construct: purchased Receptor Biology, Inc; host or cells: CHO cells
T2 sequence (P20309 whole entry): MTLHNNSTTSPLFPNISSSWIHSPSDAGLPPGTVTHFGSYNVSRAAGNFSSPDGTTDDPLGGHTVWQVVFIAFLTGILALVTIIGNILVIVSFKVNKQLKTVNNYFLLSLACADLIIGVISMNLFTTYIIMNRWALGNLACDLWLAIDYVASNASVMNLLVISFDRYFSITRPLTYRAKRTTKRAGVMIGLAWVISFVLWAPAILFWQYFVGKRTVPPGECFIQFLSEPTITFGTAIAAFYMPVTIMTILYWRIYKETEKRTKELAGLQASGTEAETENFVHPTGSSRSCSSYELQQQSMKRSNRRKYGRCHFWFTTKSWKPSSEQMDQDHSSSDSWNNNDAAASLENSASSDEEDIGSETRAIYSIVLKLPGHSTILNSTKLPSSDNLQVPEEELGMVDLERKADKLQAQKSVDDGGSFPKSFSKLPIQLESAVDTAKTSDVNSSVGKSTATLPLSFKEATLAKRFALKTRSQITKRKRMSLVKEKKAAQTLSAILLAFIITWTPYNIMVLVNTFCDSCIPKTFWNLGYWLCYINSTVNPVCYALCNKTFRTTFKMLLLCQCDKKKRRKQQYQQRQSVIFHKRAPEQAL
Method: as §1

[3] = target: T3, airway M3 receptor in isolated rat trachea (Rattus norvegicus, UniProt P08483); assay: Antagonism to the airway M3 receptor in isolated rat trachea (carbachol-induced contraction); format: cell-based; details: for Kb: isolated rat trachea, shift of carbachol dose-response curve; for Selectivity M2/M3: ratio of KB right atrium M2 to KB trachea M3
T3 construct: from tissue; host or cells: trachea of male SD rats
T3 sequence (P08483 whole entry): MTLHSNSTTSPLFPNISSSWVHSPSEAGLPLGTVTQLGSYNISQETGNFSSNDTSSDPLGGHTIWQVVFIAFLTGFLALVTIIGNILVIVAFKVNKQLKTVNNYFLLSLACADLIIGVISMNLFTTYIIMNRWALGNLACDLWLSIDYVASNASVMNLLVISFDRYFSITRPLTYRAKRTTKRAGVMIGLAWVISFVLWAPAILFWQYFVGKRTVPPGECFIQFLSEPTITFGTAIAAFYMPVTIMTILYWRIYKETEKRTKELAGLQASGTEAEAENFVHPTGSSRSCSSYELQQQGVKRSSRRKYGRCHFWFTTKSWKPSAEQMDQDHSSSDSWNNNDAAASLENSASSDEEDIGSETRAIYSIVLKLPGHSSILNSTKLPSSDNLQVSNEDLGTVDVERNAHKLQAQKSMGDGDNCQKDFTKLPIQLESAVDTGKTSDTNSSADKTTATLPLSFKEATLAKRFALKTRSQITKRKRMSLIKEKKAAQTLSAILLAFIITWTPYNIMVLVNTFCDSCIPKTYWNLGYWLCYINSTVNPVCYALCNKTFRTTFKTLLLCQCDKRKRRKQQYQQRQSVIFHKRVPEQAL
Method: The test was performed according to a conventional method. Male SD strain rats (weighing 300-500 g) were killed by exsanguination, and from each of them the trachea was isolated. Annular segments (2 mm wide) were cut out from the trachea and cut transversely at the anterior cartilage part to make open ring preparation. Each preparation was suspended in a Magnus tube filled with 5 ml of Krebs-Henseleit solution (gassed with 95% O2-5% CO2 and kept at 32° C.) with an initial tension of 1.0 g and a resting tension of 0.6 g. The tension of the preparation was recorded isometrically. After being equilibrated for an hour, the preparation was made to contract twice by treatment with 10^−4 M carbachol, and the second contraction induced by carbachol was used as the reference contraction. After washing the preparation with fresh solution to restore it to the base line, a test compound was administered thereto (or no treatment was given). Ten minutes later, carbachol (10^−8 to 10^−3 M) was cumulatively administered in three-fold increasing doses to obtain a dose-response curve. The dose-responsecurve was plotted by expressing responses as percentages based on the reference contraction of the preparation as 100%. The antagonistic potency (KB value) of the test compound was determined from the degree of shift of the dose-responsecurve attributable to the treatment with the test compound.

[4] = target: T4, M3 receptor (Canis lupus familiaris, UniProt A0A8I3N190); assay: Antagonism to M3 receptor: bronchodilation in anesthetized dogs (methacholine provocation test); format: in vivo, beagle dogs; details: inhalation of 1 mg/ml for 10 minutes, methacholine threshold four hours after administration
T4 construct: from tissue; host or cells: whole animal, male beagle dogs (in vivo, airway)
T4 sequence (A0A8I3N190 1-590): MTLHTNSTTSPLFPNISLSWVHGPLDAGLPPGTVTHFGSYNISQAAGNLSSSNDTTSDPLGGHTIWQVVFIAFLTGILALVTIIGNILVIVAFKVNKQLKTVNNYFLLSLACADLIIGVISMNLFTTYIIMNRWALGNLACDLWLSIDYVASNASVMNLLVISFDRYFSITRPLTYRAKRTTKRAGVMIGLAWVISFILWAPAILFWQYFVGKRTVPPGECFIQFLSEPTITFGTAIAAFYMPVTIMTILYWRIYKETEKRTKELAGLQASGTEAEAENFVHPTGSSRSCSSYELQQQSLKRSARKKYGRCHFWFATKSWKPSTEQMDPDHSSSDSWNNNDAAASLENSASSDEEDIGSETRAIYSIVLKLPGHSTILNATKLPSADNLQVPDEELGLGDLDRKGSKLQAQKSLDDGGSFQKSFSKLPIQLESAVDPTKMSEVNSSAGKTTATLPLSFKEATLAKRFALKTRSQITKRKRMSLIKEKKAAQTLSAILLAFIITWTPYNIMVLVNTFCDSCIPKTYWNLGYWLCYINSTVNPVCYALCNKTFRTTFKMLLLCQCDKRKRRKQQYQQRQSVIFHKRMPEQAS
Method: The bronchodilation action of inhaled test compound was evaluated by measuring the compounds' inhibitory action on respiratory resistance-increasing reaction induced by a methacholine provocation test. For the experiment, 12 to 36 months old male beagle dogs (weighing 10-15 kg) were used. After being anesthetized by intravenous pentobarbital administration (30 mg/kg), the dogs were intubated cannulae in their trachea. After their respiration became stable, the cannulae were connected with Astograph (TCK-6100H, Chest) and a methacholine provocation test by 3 Hz oscillation method was conducted. […] The methacholine concentration at which the respiratory resistance increased to twice the initial value was recorded as the methacholine reaction threshold value. Before evaluating the test compounds, the methacholine reaction threshold value^1) under no drug treatment was measured at least twice at a week's interval, to select the dogs showing reproducible reaction.
The inhaling administration of each test compound (1 mg/ml) was conducted for 10 minutes under pentobarbital anesthetization (30 mg/kg, i.v.), with the nebulizer in the Astograph. […] The bronchodilator activity (shift value) of each tested compound was determined according to the following equation: […]

| SMILES | Ki [1] [nM] | Ki [2] [nM] | Selectivity m1/m3 [2] [times] | Selectivity m2/m3 [2] [times] | Selectivity m4/m3 [2] [times] | Selectivity m5/m3 [2] [times] | Kb [3] [nM] | Selectivity M2/M3 [3] [times] | Shift (fold) Airway constriction M3 [4] [fold] |
| --- | --- | --- | --- | --- | --- | --- | --- | --- | --- |
| O=C(CCNC(=O)CNC(=O)CC(c1ccccc1)(c1ccccc1)c1ccccc1)NC[C@H]1CCCN(CC2CCCCC2)C1 [Example 12, N-{2-(3-{((3R)-1-cyclohexylmethyl-3-piperidyl)methyl}amino-3-oxopropyl)amino-2-oxoethyl}-3,3,3-triphenyloropanamide] | 34 | 0.38 | 370 | 89 | 47 | 84 | 2.3 | 70 |  |
| CC[N+]1(CC)CCC[C@H](CNC(=O)[C@H]2CCCN2C(=O)[C@@H]2C[C@@H](O)CN2C(=O)CC(c2ccccc2)(c2ccccc2)c2ccccc2)C1.[Cl-] [Example 133, (3R)-1,1-diethyl-3-({({(2R)-1-({(2S,4R)-4-hydroxy-1-(3,3,3-triphenylpropanoyl)-2-pyrrolidinyl}carbonyl)-2-pyrrolidinyl}carbonyl)amino}methyl)piperidinium chloride] | 810 | 3.2 | >780 | 250 | 44 | 500 | 0.71 | 58 | 20.2 |
